This is an account of results in patent publication US20240092784A1, “CONDENSED HETEROCYCLIC COMPOUND” (NISSAN CHEMICAL CORPORATION, priority 2020, published 2024).

Counter-ions that a name gives are not always drawn. Like-named read-outs stand apart in the source and are kept apart here.

For this assay, the target named is human SPR (Homo sapiens (Human), UniProt P35270). Briefly: Evaluation Example 2: Measurement of human SPR inhibitory activity (seven concentrations, sepiapterin absorbance at 420 nm). The format is biochemical. A digest of the protocol:
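Reactions ran 240 min at room temperature in 100 mM Tris-HCl pH 7.5 with 0.01% BSA. They contained tag-cleaved, E. coli-expressed full-length human SPR (diluted to 150 ng/mL), seven compound concentrations from 0.14 to 100 nM, and sepiapterin/NADPH added as a 120 μM/160 μM solution. Inhibition was calculated from sepiapterin absorbance at 420 nm.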

[1] abbreviates: Evaluation Example 2, seven concentrations 0.14 nM to 100 nM, 240 minutes at room temperature, read-out: IC50.
[2] abbreviates: sepiapterin absorbance, Table 41, read-out: concentration at 50% inhibition of human SPR (IC50).

Sequence of human SPR (P35270 whole entry): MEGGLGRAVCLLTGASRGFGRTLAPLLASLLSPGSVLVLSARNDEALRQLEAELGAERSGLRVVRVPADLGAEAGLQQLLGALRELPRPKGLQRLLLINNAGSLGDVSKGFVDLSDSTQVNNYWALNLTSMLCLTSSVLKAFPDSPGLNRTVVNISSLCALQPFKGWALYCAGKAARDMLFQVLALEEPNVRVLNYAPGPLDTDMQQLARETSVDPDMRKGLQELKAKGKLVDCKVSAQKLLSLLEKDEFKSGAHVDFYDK

`CC(C)Cn1c(=O)c(C(=O)NC2CC2)c(O)n2ncc(/C=C/C(=O)N(C)CC(F)(F)F)c12` [compound 509, (E)-N-Cyclopropyl-7-hydroxy-4-isobutyl-3-(3-(methyl(2,2,2-trifluoroethyl)amino)-3-oxoprop-1-en-1-yl)-5-oxo-4,5-dihydropyrazolo[1,5-a]pyrimidine-6-carboxamide]: the IC50 under setting [1] is 0.92 nM.

On to `Cc1nn2c(O)c(C(=O)NC3CC3)c(=O)n(CC(C)C)c2c1/C=C/C(=O)N1CCC[C@H]1C(C)(C)O` [Synthesis Example 677, (S,E)-N-Cyclopropyl-7-hydroxy-3-(3-(2-(2-hydroxypropan-2-yl)pyrrolidin-1-yl)-3-oxoprop-1-en-1-yl)-4-isobutyl-2-methyl-5-oxo-4,5-dihydropyrazolo[1,5-a]pyrimidine-6-carboxamide], for which the IC50 under setting [1] stood at 0.95 nM.

As for `Cc1nn2c(O)c(C(=O)NC3CC3)c(=O)n(CC(C)C)c2c1/C=C/C(=O)N1CCC(F)(F)CC1C` (stereo not drawn) [Synthesis Example 672, (E)-N-Cyclopropyl-3-(3-(4,4-difluoro-2-methylpiperidin-1-yl)-3-oxoprop-1-en-1-yl)-7-hydroxy-4-isobutyl-2-methyl-5-oxo-4,5-dihydropyrazolo[1,5-a]pyrimidine-6-carboxamide], under setting [1], the IC50 is 0.86 nM. Still for that read-out and setting: to `CC(C)Cn1c(=O)c(C(=O)NC2CC2)c(O)n2ncc(/C=C/C(=O)NCC(C)(C)O)c12` [compound 507, (E)-N-Cyclopropyl-7-hydroxy-3-(3-((2-hydroxy-2-methylpropyl)amino)-3-oxoprop-1-en-1-yl)-4-isobutyl-5-oxo-4,5-dihydropyrazolo[1,5-a]pyrimidine-6-carboxamide] belongs 1.13 nM; to `CC(C)Cn1c(=O)c(C(=O)NC2CC2)c(O)n2ncc(/C=C/C(=O)N3CCN(CC(F)(F)F)CC3)c12` [compound 506, (E)-N-Cyclopropyl-7-hydroxy-4-isobutyl-5-oxo-3-(3-oxo-3-(4-(2,2,2-trifluoroethyl)piperazin-1-yl)prop-1-en-1-yl)-4,5-dihydropyrazolo[1,5-a]pyrimidine-6-carboxamide], 0.8 nM.

With `CCc1nn2c(O)c(C(=O)NC3CC3)c(=O)n(CC(C)C)c2c1/C=C/C(=O)N1CCOCC1` [compound 586, (E)-N-Cyclopropyl-2-ethyl-7-hydroxy-4-isobutyl-3-(3-morpholino-3-oxoprop-1-en-1-yl)-5-oxo-4,5-dihydropyrazolo[1,5-a]pyrimidine-6-carboxamide], the IC50 under setting [1] is 0.99 nM.

For `CNc1nn2c(O)c(C(=O)NC3CC3)c(=O)n(CC(C)C)c2c1/C=C/C(=O)N1CC2CCC(C1)O2` [Synthesis Example 431, (E)-3-(3-(8-Oxa-3-azabicyclo[3.2.1]octan-3-yl)-3-oxoprop-1-en-1-yl)-N-cyclopropyl-7-hydroxy-4-isobutyl-2-(methylamino)-5-oxo-4,5-dihydropyrazolo[1,5-a]pyrimidine-6-carboxamide], the IC50 under setting [1] was 0.81 nM. Regarding `CC(C)Cn1c(=O)c(C(=O)NC2CC2)c(O)n2ncc(/C=C/C(=O)N3CC[C@@H](C(C)(C)O)C3)c12` [Synthesis Example 743, (R,E)-N-Cyclopropyl-7-hydroxy-3-(3-(3-(2-hydroxypropan-2-yl)pyrrolidin-1-yl)-3-oxoprop-1-en-1-yl)-4-isobutyl-5-oxo-4,5-dihydropyrazolo[1,5-a]pyrimidine-6-carboxamide], the IC50 under setting [2] is 1.33 nM. `CC(C)(C)Cn1c(=O)c(C(=O)NC2CC2)c(O)n2nc(N)c(/C=C/C3CCOC3)c12` (stereo not drawn) [Synthesis Example 444, (E)-2-Amino-N-cyclopropyl-7-hydroxy-4-neopentyl-5-oxo-3-(2-(tetrahydrofuran-3-yl)vinyl)-4,5-dihydropyrazolo[1,5-a]pyrimidine-6-carboxamide hydrochloride]: the IC50 under setting [1] was 0.98 nM.

Take `C/C(=C\c1cnn2c(O)c(C(=O)NC3CC3)c(=O)n(CC(C)C)c12)C(=O)N1CCN(C2CC(F)(F)C2)CC1` [Synthesis Example 255, (E)-N-Cyclopropyl-3-(3-(4-(3,3-difluorocyclobutyl)piperazin-1-yl)-2-methyl-3-oxoprop-1-en-1-yl)-7-hydroxy-4-isobutyl-5-oxo-4,5-dihydropyrazolo[1,5-a]pyrimidine-6-carboxamide]: under setting [1], the IC50 was determined as 1.02 nM. Regarding `CC(C)Cn1c(=O)c(C(=O)NC2CC2)c(O)n2ncc(/C=C/C(=O)N3CCCC34CC4)c12` [Synthesis Example 721, (E)-N-Cyclopropyl-7-hydroxy-4-isobutyl-5-oxo-3-(3-oxo-3-(4-azaspiro[2.4]heptan-4-yl)prop-1-en-1-yl)-4,5-dihydropyrazolo[1,5-a]pyrimidine-6-carboxamide], the IC50 under setting [2] stood at 1.05 nM. Take `CC(C)Cn1c(=O)c(C(=O)NC2CC2)c(O)n2ncc(/C=C/C(=O)N3CCOc4ccccc43)c12` [Synthesis Example 739, (E)-N-Cyclopropyl-3-(3-(2,3-dihydro-4H-benz[b][1,4]oxazin-4-yl)-3-oxoprop-1-en-1-yl)-7-hydroxy-4-isobutyl-5-oxo-4,5-dihydropyrazolo[1,5-a]pyrimidine-6-carboxamide]: under setting [2], the IC50 came out at 1.54 nM. On to `CC(C)(C)Cn1c(=O)c(C(=O)NC2CC2)c(O)n2nc(N3CC[C@@H](N)C3)cc12` [Synthesis Example 341, (R)-2-(3-Aminopyrrolidin-1-yl)-N-cyclopropyl-7-hydroxy-4-neopentyl-5-oxo-4,5-dihydropyrazolo[1,5-a]pyrimidine-6-carboxamide], for which the IC50 under setting [1] stood at 2.6 nM. For `CCOC(=O)/C=C/c1c(NC(=O)OC(C)(C)C)nn2c(O)c(C(=O)NC3CC3)c(=O)n(CC(C)C)c12` [Synthesis Example 412, Ethyl (E)-3-(2-((tert-butoxycarbonyl)amino)-6-(cyclopropylcarbamoyl)-7-hydroxy-4-isobutyl-5-oxo-4,5-dihydropyrazolo[1,5-a]pyrimidin-3-yl)acrylate], the IC50 under setting [1] is 1.85 nM.

Regarding `COC[C@@H]1COCCN1C(=O)/C=C/c1cnn2c(O)c(C(=O)NC3CC3)c(=O)n(CC3(F)CC3)c12` [Synthesis Example 383, (R,E)-N-Cyclopropyl-4-((1-fluorocyclopropyl)methyl)-7-hydroxy-3-(3-(3-(methoxymethyl)morpholino)-3-oxoprop-1-en-1-yl)-5-oxo-4,5-dihydropyrazolo[1,5-a]pyrimidine-6-carboxamide], the IC50 under setting [1] was 0.82 nM. In the case of `COC(C)Cn1c(=O)c(C(=O)NC2CC2)c(O)n2ncc(/C=C/C(=O)N3CCOCC3)c12` (single isomer, unassigned) [Synthesis Example 384, (E)-N-Cyclopropyl-7-hydroxy-4-(2-methoxypropyl)-3-(3-morpholino-3-oxoprop-1-en-1-yl)-5-oxo-4,5-dihydropyrazolo[1,5-a]pyrimidine-6-carboxamide], under setting [1], the IC50 was 0.82 nM. The same measure, in the same setting: to `CC(C)Cn1c(=O)c(C(=O)NC2CC2)c(O)n2ncc(/C=C/C(=O)N3CC[C@@H](C#N)C3)c12` [compound 483, (R,E)-3-(3-(3-Cyanopyrrolidin-1-yl)-3-oxoprop-1-en-1-yl)-N-cyclopropyl-7-hydroxy-4-isobutyl-5-oxo-4,5-dihydropyrazolo[1,5-a]pyrimidine-6-carboxamide] belongs 0.69 nM; to `COC[C@H]1COCCN1C(=O)/C=C/c1cnn2c(O)c(C(=O)NC3CC3)c(=O)n(CC(C)C)c12` [compound 531, (S,E)-N-Cyclopropyl-7-hydroxy-4-isobutyl-3-(3-(3-(methoxymethyl)morpholino)-3-oxoprop-1-en-1-yl)-5-oxo-4,5-dihydropyrazolo[1,5-a]pyrimidine-6-carboxamide], 0.73 nM.
